Measured values from US9233982B2, “Spiro tetrahydro—benzothiophen derivatives useful for the treatment neurodegenerative diseases” (Ares Trading S.A., priority 2012, dated 2016).

Assays:
BACE-1 [1] = target: T1, BACE-1 (Homo sapiens, UniProt P56817); experiment: LanthaScreen BACE1 biochemical assay (TR-FRET)
Protocol: Biochemical Assay to Assess Compounds for Inhibition of BACE-1
The LanthaScreen™ BACE1 assay kit from Invitrogen (Catalogue number PV4748) was used as the primary assay in the screening cascade.
Briefly, the test compound was incubated with the enzyme and substrate for 1 hour at room temperature in a reaction volume of 15 μl and then 5 nM terbium labelled anti-biotin antibody was added to stop the reaction and the solution incubated for a further 1 hour at room temperature. The microplate was read on an Envision plate reader fitted with a photometric 340 nm excitation filter and the amount of substrate that had been cleaved was represented by the TR-FRET ratio, calculated by dividing the Fluorescein emission signal (520 nm) by the Terbium emission signal (495 nm).

BACE-1 [2] = target: T1, BACE-1; experiment: HTRF cell based assay, Aβ1-40 peptide secreted by recombinant HEK293 cells; parameters: endogenous in cells; host or cells: recombinant HEK293 cells engineered to over-produce APP; conditions: Aβ1-40 secretion, recombinant HEK293 cells producing APP, overnight treatment; read-out: Cellular assay EC50 Ranges
Protocol: The cell based assay used to support the program utilized HTRF assay reagents from Cisbio (Catalogue number 62B40PEB) to quantify the amount of Aβ1-40 peptide secreted by recombinant HEK293 cells. The cells were engineered to produce high quantities of APP, the precursor for Aβ1-40 peptide, under hygromycin selection pressure. Briefly, cells were plated into 384-well microplates and allowed to settle for 2 hours prior to compound addition. Following overnight treatment with compound, the media containing secreted peptide was transferred into a low volume assay plate for quantification with HTRF immunoassay reagents. Adhering to the manufacturers protocol for quantification, a TR-FRET signal is obtained in the presence of the Aβ1-40 peptide following addition of a cryptate conjugated antibody and an XL665 conjugated antibody, each raised to a different epitope of the Aβ1-40 peptide. A low FRET signal is obtained when cells are treated with compounds that inhibit APP cleavage and peptide secretion.

T1 sequence (P56817 46-501): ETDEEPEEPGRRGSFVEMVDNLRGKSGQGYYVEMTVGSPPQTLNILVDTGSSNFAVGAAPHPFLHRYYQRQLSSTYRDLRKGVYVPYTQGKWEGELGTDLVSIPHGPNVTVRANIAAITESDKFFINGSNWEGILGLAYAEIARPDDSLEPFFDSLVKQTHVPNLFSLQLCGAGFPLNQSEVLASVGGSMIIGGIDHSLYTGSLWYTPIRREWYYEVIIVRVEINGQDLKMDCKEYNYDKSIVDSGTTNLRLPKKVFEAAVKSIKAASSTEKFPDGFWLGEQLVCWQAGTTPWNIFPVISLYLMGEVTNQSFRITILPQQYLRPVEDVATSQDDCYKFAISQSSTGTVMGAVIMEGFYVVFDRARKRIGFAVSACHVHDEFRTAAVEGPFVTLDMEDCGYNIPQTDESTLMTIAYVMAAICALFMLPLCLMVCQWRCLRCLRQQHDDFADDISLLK

| Compound | IC50 (BACE-1 [1]) [µM] | EC50 (BACE-1 [2]) [µM] |
| --- | --- | --- |
| N#Cc1cccc(-c2cc3c(s2)CCCC32N=C(N)N(Cc3ccccc3)C2=O)c1 (stereo not drawn) [Example 57, 3-(2′-amino-1′-benzyl-5′-oxo-1′,5′,6,7-tetrahydro-5H-spiro[benzo[b]thiophene-4,4′-imidazole]-2-yl)benzonitrile] | < 1 | 5 to 50 |
| CN1OC2(CCCc3sc(-c4cccc(C(F)(F)F)c4)cc32)N=C1N (stereo not drawn) [Example 58, 2′-methyl-2-(3-(trifluoromethyl)phenyl)-6,7-dihydro-2′H,5H-spiro[benzo[b]thiophene-4,5′-[1,2,4]oxadiazol]-3′-amine] | 1 to 5 | 5 to 50 |
| NC1=NC2(CCCc3sc(-c4cccc(C(F)(F)F)c4)cc32)ON1Cc1ccccc1 (stereo not drawn) [Example 59] | 1 to 5 | 5 to 50 |
| N#Cc1cccc(-c2cc3c(s2)CCCC32N=C(N)N(Cc3ccccc3)O2)c1 (stereo not drawn) [Example 60] | < 1 | 5 to 50 |
| NC1=NC2(CCCc3cc(-c4cccc(-c5ccccc5)c4)sc32)CCS1 (stereo not drawn) [Example 61] | 1 to 5 | 5 to 50 |
| N#Cc1cccc(-c2cc3c(s2)C2(CCC3)CCSC(N)=N2)c1 (stereo not drawn) [Example 62] | 5 to 65 | 5 to 50 |
